What was measured:
Assay in all cases: Immunohistochemistry of xenograft tumors
Format in all cases: in vivo, mouse
Settings in all cases: treated xenograft tumors relative to un-treated tumors
[1] = system: angiotensin receptor-like 1 (AGTRL1)
Protocol: (§1) Tumors were propagated in nude mice as subcutaneous (sc) transplants using L2987 and HCT-116 cancer cell lines. Tumor passage occurred approximately every two to four weeks. Tumors were then allowed to grow to the pre-determined size window (100-200 mm^3, tumors outside the range were excluded) and animals were evenly distributed to various treatment and control groups. Animals were treated with the example VEGFR-2 inhibitor (100 mg/kg 1 qd×14 days). Treated animals were checked daily for treatment related toxicity/mortality. Each group of animals was weighed before the initiation of treatment (Wt1) and then again following the last treatment dose (Wt2). The difference in body weight (Wt2−Wt1) provided a measure of treatment-related toxicity. Tumor response was determined by measurement of tumors with a caliper twice a week, until the tumors reached a predetermined target size. Animals that were distributed to various treatment and control groups during the study were eventually sacrificed to obtain tumor and blood samples for genomic and protein analysis.
(§2) Tissue specimens collected for IHC were fixed by using 10% formalin. After fixation, the chemical fixative was discarded and the specimens were submerged in 70% ethanol before being embedded in paraffin blocks. Five micron tissue sections were cut from each block and placed on positively charged microscope slides. The tissue slides were de-paraffined by immersing in xylene. The slides were re-hydrated in 100% ethanol, 95% ethanol, and 70% ethanol. After re-hydration, the slides were washed several times with deionized water at room temperature. Multiple antigen retrieval conditions (Citra, Citra Plus, and AR10) were tested by use of the BioGenex EZ-retriever microwave to determine the best conditions. Staining optimization was performed in an automated BioGenex i6000 IHC system for each of the candidate marker antibodies independently. Both treated and un-treated xenografts were stained in the same run to minimize slide to slide variations. […]

[2] = system: complement component 1, q subcomponent, receptor 1 (C1qR1)
Protocol: as §1, §2

[3] = system: Collagen type IV (COL4A1)
Protocol: as §1, §2

Cc1cc2c(F)c(Oc3ncnn4cc(OC[C@@H](C)OC(=O)[C@H](C)N)c(C)c34)ccc2[nH]1 [example VEGFR-2 inhibitor, [(1R),2S]-2-Aminopropionic acid 2-[4-(4-fluoro-2-methyl-1H-indol-5-yloxy)-5-methylpyrrolo[2,1-f][1,2,4]triazin-6-yloxy]-1-methylethyl ester]
negative or lesser degree of staining: IHC staining of angiotensin receptor-like 1 (AGTRL1) around tumor blood vessels following treatment [1] | IHC staining of C1qR1 around tumor blood vessels following treatment [2] | IHC staining of Collagen type IV (COL4A1) around tumor blood vessels following treatment [3]

From patent US8067189B2, “Methods for determining sensitivity to vascular endothelial growth factor receptor-2 modulators by measuring the level of collagen type IV” (Bristol-Myers Squibb Company, priority 2005, dated 2011)
